Data published in US7786299B2, “Methods for treating diseases or conditions using dihydropteridinone compounds” (Boehringer Ingelheim Pharma GmbH & Co. KG, priority 2003, dated 2010).

What was measured:
HeLaS3 cells = assay: Measurement of cytotoxicity on cultivated human tumour cells (AlamarBlue); assay type: cell-based; conditions: HeLa in Table 1; unit inferred
Method: The activity of the compounds according to the invention was determined in the cytotoxicity test on cultivated human tumour cells and/or in a FACS analysis, for example on HeLaS3 cells.
Measurement of Cytotoxicity on Cultivated Human Tumour Cells
To measure the cytotoxicity on cultivated human tumour cells, cells of the cervical cancer tumour cell line HeLaS3 (obtained from American Type Culture Collection (ATCC)) in Ham's F12 Medium (Life Technologies) and 10% foetal calf serum (Life Technologies) were cultivated and harvested in the logarithmic growth phase. Then the HeLaS3 cells were placed in 96-well plates (Costar) at a density of 1000 cells per well and incubated overnight in an incubator (at 37° C. and 5% CO2), while on each plate 6 wells were filled only with medium (3 wells as a control of the medium, 3 wells for incubation with reduced AlamarBlue). The active substances were added to the cells in various concentrations (dissolved in DMSO; final concentration: 1%) (in each case as a triple measurement). After 72 hours' incubation, 20 μl of AlamarBlue (AccuMed International) were added to each well, and the cells were incubated for a further 7 hours. As a control, 20 μl of reduced Alamar Blue (AlamarBlue reagent which had been autoclaved for 30 min) were added to 3 wells. After 7 h incubation the colour change of the AlamarBlue reagent in the individual wells was determined in a Perkin Elmer fluorescence spectrophotometer (excitation 530 nm, emission 590 nm, slits 15, integrate time 0.1). The amount of AlamarBlue reagent reacted represents the metabolic activity of the cells. The relative cell activity was calculated as a percentage of the control (HeLa S3 cells without inhibitor) and the active substance concentration which inhibits the cell activity by 50% (IC^50) was obtained. The values were calculated from the average of three individual measurements, correcting for the control value (medium control).

H460-VINC = assay: Cytotoxicity on H460-VINC cells (Table 1; method not given); assay type: cell-based; conditions: H460-VINC of Table 1; unit inferred

| Compound | IC50 (HeLaS3 cells) [nM] | IC50 (H460-VINC) [nM] |
| --- | --- | --- |
| COc1cc(C(=O)NC2CCC(N3CCOCC3)CC2)ccc1Nc1ncc2c(n1)N(CCC(C)C)C(C)C(=O)N2C (centres unmarked) [Example 9] | 57 | 207 |
| CC(C)N1c2nc(Nc3ccc(C(=O)NC4CC(C)(C)N(C)C(C)(C)C4)cc3)ncc2N(C)C(=O)[C@H]1C [Example 33] | 97 | ≥ 3000 |
| Cc1cc(C(=O)NC2CCN(C)CC2)ccc1Nc1ncc2c(n1)N(C1CCCC1)[C@H](C)C(=O)N2C [Example 83] | 69 | 263 |
| CC[C@@H]1C(=O)N(C)c2cnc(Nc3ccc(C(=O)NCCCCN(CC)CC)cc3OC)nc2N1CCC(C)C [Example 153] | 72 | 2640 |
| CCC1C(=O)N(C)c2cnc(Nc3ccc(C(=O)NC4CC5CCC(C4)N5C)cc3OC)nc2N1C1CCCC1 (centres unmarked) [Example 45] | 22 | 792 |
| COc1cc(C(=O)NC2CCC(N3CCOCC3)CC2)ccc1Nc1ncc2c(n1)N(C1CCCC1)C(C)C(=O)N2C (centres unmarked) [Example 24] | 17 | 277 |
| CCC1C(=O)N(C)c2cnc(Nc3ccc(C(=O)NC4CCN(CC)CC4)cc3OC)nc2N1C1CCCC1 (centres unmarked) [Example 22] | 8 | 347 |
| COc1cc(C(=O)NC2CCN(C)CC2)ccc1Nc1ncc2c(n1)N(C1CCCC1)[C@H](C)C(=O)N2C [Example 80] | 38 | 286 |
| CCC1C(=O)N(C)c2cnc(Nc3ccc(C(=O)NC4CCN(C)CC4)cc3)nc2N1C1CCCC1 (centres unmarked) [Example 44] | 9 | 204 |
| CC[C@@H]1C(=O)N(C)c2cnc(Nc3ccc(C(=O)NCCN4CCOCC4)cc3OC)nc2N1CCC(C)C [Example 156] | 48 | 481 |
| COc1cc(C(=O)NC(C)(C)CN2CCCC2)ccc1Nc1ncc2c(n1)N(C1CCCC1)C(C)C(=O)N2C (centres unmarked) [Example 49] | 59 | 529 |
| CCC1C(=O)N(C)c2cnc(Nc3ccc(C(=O)NC(C)(C)CN4CCCC4)cc3OC)nc2N1C1CCCC1 (centres unmarked) [Example 55] | 13 | 86 |
| CCN(CC)CCNC(=O)c1ccc(Nc2ncc3c(n2)N(C2CCCC2)C(C)C(=O)N3C)c(OC)c1 (centres unmarked) [Example 62] | 58 | 538 |
| CC[C@@H]1C(=O)N(C)c2cnc(Nc3ccc(C(=O)NC4CCN(C)CC4)cc3OC)nc2N1CCC(C)C [Example 171] | 31 | 790 |
| COc1cc(C(=O)NC2CC(C)(C)N(C)C(C)(C)C2)ccc1Nc1ncc2c(n1)N(CC(C)(C)C)C(C)C(=O)N2C (centres unmarked) [Example 5] | 52 | 863 |
| CC[C@@H]1C(=O)N(C)c2cnc(Nc3ccc(C(=O)NCCN4CCOCC4)cc3OC)nc2N1C(C)C [Example 71] | 35 | 227 |
| COc1cc(C(=O)N[C@H]2CC[C@H](N3CCOCC3)CC2)ccc1Nc1ncc2c(n1)N(CCC(C)C)[C@H](C)C(=O)N2C [Example 38] | 87 | 278 |
| CC[C@@H]1C(=O)N(C)c2cnc(Nc3ccc(C(=O)NC4CCN(C)CC4)cc3OC)nc2N1C1CCCCC1 [Example 96] | 11 | 577 |
| CC[C@@H]1C(=O)N(C)c2cnc(Nc3ccc(C(=O)NC4CCN(C)CC4)cc3OC)nc2N1c1ccccc1 [Example 88] | 20 | 1020 |
| CCC1C(=O)N(C)c2cnc(Nc3ccc(C(=O)NC4CCCN(C)CC4)cc3OC)nc2N1CCC(C)C (mixture of isomers) [Example 172] | 20 | 772 |
| CC1C(=O)N(C)c2cnc(Nc3ccc(C(=O)NC4CC5CCC(C4)N5C)cc3)nc2N1C1CCCC1 (centres unmarked) [Example 68] | 92 | 1240 |
| CC[C@@H]1C(=O)N(C)c2cnc(Nc3ccc(C(=O)NCC(C)(C)CN(C)C)cc3OC)nc2N1c1ccccc1 [Example 89] | 47 | 245 |
| CC[C@@H]1C(=O)N(C)c2cnc(Nc3ccc(C(=O)NCCCN4CCCCC4)cc3OC)nc2N1CCC(C)C [Example 169] | 44 | 503 |
| CCC1C(=O)N(C)c2cnc(Nc3ccc(C(=O)NC4CCC(N5CCCCC5)CC4)cc3OC)nc2N1C(C)C (centres unmarked) [Example 129] | 35 | 646 |
| CCN1CC[C@@H](NC(=O)c2ccc(Nc3ncc4c(n3)N(CCC(C)C)[C@H](C)C(=O)N4C)c(OC)c2)C1 [Example 37] | 72 | 762 |
| CCC1C(=O)N(C)c2cnc(Nc3ccc(C(=O)NC4CCN(C5CCOCC5)CC4)cc3OC)nc2N1C1CCCC1 (centres unmarked) [Example 116] | 6 | 174 |

| Compound | IC50 (HeLaS3 cells) [nM] | IC50 (H460-VINC) [nM] |
| --- | --- | --- |
| COc1cc(C(=O)NCC(C)(C)CN(C)C)ccc1Nc1ncc2c(n1)N(C1CCCC1)C(C1CC1)C(=O)N2C (centres unmarked) [Example 51] | 80 | 150 |
| COc1cc(C(=O)NC2CCN(C)CC2)ccc1Nc1ncc2c(n1)N(CC(C)(C)C)C(C)C(=O)N2C (centres unmarked) [Example 145] | 43 | ≥ 3000 |
| COc1cc(C(=O)NC2CCN(C)CC2)ccc1Nc1ncc2c(n1)N(CC(C)C)C(C)(C)C(=O)N2C [Example 61] | 65 | 1040 |
| COc1cc(C(=O)NC2CCC(N3CCOCC3)CC2)ccc1Nc1ncc2c(n1)N(C(C)C)C(C)C(=O)N2C (centres unmarked) [Example 26] | 59 | 424 |
| CCC1C(=O)N(C)c2cnc(Nc3ccc(C(=O)NC4CCC(N5CCOCC5)CC4)cc3OC)nc2N1C1CCCC1 (centres unmarked) [Example 133] | 11 | 75 |
| COc1cc(C(=O)NC2CCN(C(C)C)CC2)ccc1Nc1ncc2c(n1)N(CCC(C)C)C(C)C(=O)N2C (centres unmarked) [Example 2] | 56 | 971 |
| CCC1C(=O)N(C)c2cnc(Nc3ccc(C(=O)NC4CCC(N5CCOCC5)CC4)cc3OC)nc2N1C(C)C (centres unmarked) [Example 27] | 14 | 164 |
| COc1cc(C(=O)NC2CCN(C)CC2)ccc1Nc1ncc2c(n1)N(c1ccccc1)[C@H](C)C(=O)N2C [Example 41] | 83 | ≥ 3000 |
| COc1cc(C(=O)N[C@H]2CC[C@H](N3CCOCC3)CC2)ccc1Nc1ncc2c(n1)N(C1CCCC1)[C@H](C)C(=O)N2C [Example 40] | 38 | 187 |
| COc1cc(C(=O)NC2CCN(C(C)C)CC2)ccc1Nc1ncc2c(n1)N(CC(C)(C)C)C(C)C(=O)N2C (centres unmarked) [Example 7] | 84 | 865 |
| CCC1C(=O)N(C)c2cnc(Nc3ccc(C(=O)NC4CCC(N5CCCC5)CC4)cc3OC)nc2N1C1CCCC1 (centres unmarked) [Example 19] | 13 | 747 |
| COc1cc(C(=O)NCCCN(C)C)ccc1Nc1ncc2c(n1)N(C1CCCC1)[C@H](C)C(=O)N2C [Example 75] | 46 | 557 |
| COc1cc(C(=O)NC2CCC(N(C)C)CC2)ccc1Nc1ncc2c(n1)N(C1CCCCC1)C(C)C(=O)N2C (centres unmarked) [Example 118] | 10 | 279 |
| CCC1C(=O)N(C)c2cnc(Nc3ccc(C(=O)NC4CCC(N5CCCCC5)CC4)cc3OC)nc2N1C1CCCC1 (centres unmarked) [Example 128] | 15 | 282 |
| CC[C@@H]1C(=O)N(C)c2cnc(Nc3ccc(C(=O)NCC(C)(C)CN(C)C)cc3OC)nc2N1CCC(C)C [Example 168] | 42 | 88 |
| COc1cc(C(=O)NC2CCN(C)CC2)ccc1Nc1ncc2c(n1)N(CCC(C)C)C(C)C(=O)N2C (centres unmarked) [Example 146] | 66 | 966 |
| C[C@@H]1C(=O)N(C)c2cnc(Nc3ccc(C(=O)NC4CC(C)(C)N(C)C(C)(C)C4)cc3)nc2N1C1CCCC1 [Example 31] | 23 | ≥ 3000 |
| CCC1C(=O)N(C)c2cnc(Nc3ccc(C(=O)NC4CCC(N5CCN(C)CC5)CC4)cc3OC)nc2N1C(C)C (centres unmarked) [Example 113] | 37 | 687 |
| COc1cc(C(=O)NCCN2CCCCC2)ccc1Nc1ncc2c(n1)N(C1CCCC1)C(C)C(=O)N2C (centres unmarked) [Example 66] | 64 | 250 |
| CC(C)N1CCC(NC(=O)c2ccc(Nc3ncc4c(n3)N(CC(C)(C)C)C(C)C(=O)N4C)cc2)CC1 (centres unmarked) [Example 12] | 99 | 1070 |
| COc1cc(C(=O)NCCCN2CCCCC2)ccc1Nc1ncc2c(n1)N(C1CCCC1)C(C)C(=O)N2C (centres unmarked) [Example 64] | 64 | 894 |
| COc1cc(C(=O)NC2CCC(N(C)C)CC2)ccc1Nc1ncc2c(n1)N(CCC(C)C)C(C)C(=O)N2C (centres unmarked) [Example 114] | 64 | 766 |
| CC1C(=O)N(C)c2cnc(Nc3ccc(C(=O)NCCCN4CCOCC4)cc3)nc2N1C1CCCC1 (centres unmarked) [Example 69] | 55 | 633 |
| COc1cc(C(=O)NC2CCN(Cc3ccccc3)CC2)ccc1Nc1ncc2c(n1)N(C1CCCCC1)C(C)C(=O)N2C (centres unmarked) [Example 115] | 16 | 76 |
| COc1cc(C(=O)NC2CC(C)(C)N(C)C(C)(C)C2)ccc1Nc1ncc2c(n1)N(C1CCCCC1)C(C)C(=O)N2C (centres unmarked) [Example 117] | 10 | 370 |
| COc1cc(C(=O)NC2CCC(N3CCOCC3)CC2)ccc1Nc1ncc2c(n1)N(C1CCCCC1)C(C)C(=O)N2C (centres unmarked) [Example 137] | 39 | 148 |
